Earlier results in patent US6726673B1, “Methods and apparatus for improved administration of testosterone pharmaceuticals” (Zars, Inc., priority 1999, dated 2004).

Settings: following intramuscular injection, absorbed gradually from the lipid tissue phase at the injection site

CCCCCCC(=O)O[C@H]1CC[C@H]2[C@@H]3CCC4=CC(=O)CC[C@]4(C)[C@H]3CC[C@]12C [testosterone enanthate]
duration of action: 2-4 weeks
